# Earlier results in patent publication US20220054538A1, “ANTI-HELICOBACTER AGENT AND METHOD FOR THE USE THEREOF” (priority 2018, published 2022).
# Tested on: Helicobacter pylori culture
# Settings: in vitro
substance,measurement,value
calcium pectate,effect on Helicobacter pylori culture,significant effect
